# In patent US11975044B2, “Methods for treating cancers using fat specific protein 27 (FSP27) compositions” (Ohio University, priority 2017, dated 2024):
# Read-outs that look alike come from different tables or passages of the source. Residues, ends and D or L forms follow the SMILES beside them. No end group written: not given here.
# B1: CIDEC: human full-length CIDEC (FSP27) protein, purchased from Abcam (protein, UniProt Q96AQ7 1-238, looked up)
# chain: MEYAMKSLSLLYPKSLSRHVSVRTSVVTQQLLSEPSPKAPRARPCRVSTADRSVRKGIMAYSLEDLLLKVRDTLMLADKPFFLVLEEDGTTVETEEYFQALAGDTVFMVLQKGQKWQPPSEQGTRHPLSLSHKPAKKIDVARVTFDLYKLNPQDFIGCLNVKATFYDTYSLSYDLHCCGAKRIMKEAFRWALFSMQATGHVLLGTSCYLQQLLDATEEGQPPKGKASSLIPTCLKILQ
# modifications: full-length
# notes: human full-length CIDEC (FSP27) protein, purchased from Abcam
# Key:
# Type in all cases: cell-based
# [1] = tested on: HepG2 human liver cancer (hepatocellular carcinoma) cells; experiment: cells; details: for efficacy in inhibiting cell viability: human liver cancer, 50 nM; for inhibition of cell viability: human, 100 nM
# Description: (§1) Human cancer cell lines (part of NCI-60 panel of human cancer cells)—SK-MEL-5 (melanoma), SK-MEL-28 (melanoma), MCF-7 (breast cancer), 786-0 (renal cancer), A498 (renal cancer), Hep-G2 (liver cancer), SK-HEP-1 (liver cancer), PANC-1 (pancreatic cancer), and normal human skin fibroblast cells MALME-3 cells were obtained from American Type Culture Collection (ATCC; Manassas, VA). The cells were grown and maintained in corresponding complete growth medium—PANC-1 in DMEM medium (ATCC), 786-0 in RPMI-1640 medium, remaining cell lines in EMEM media (ATCC), and MALME-3 in McCoy's medium (ATCC)—as indicated by ATCC protocols. Complete growth media was supplemented with 10% fetal bovine serum (FBS; ATCC) and 1× antibiotic-antimycotic (Thermo Fisher Scientific, Waltham, MA). MALME-3 cells were grown in McCoy's medium (ATCC) supplemented with 15% FBS and 1× antibiotic-antimycotic. Cells were grown at 37C/5% CO2 in a humidified incubator. Media was replaced every third day.
# (§2) Recombinant hGH was purchased from Antibodies Online (Atlanta, GA), GH antagonist (GHA; Somavert) was obtained from Pfizer (New York City, NY), full length CIDEC was purchased from Abcam (Cambridge, UK) and CIDEC fragment peptides were synthesized at Genscript (Piscataway, NJ). No hGH or GHA was present in the media or added externally unless specifically mentioned. For hGH treatment, 16 hr. after cell seeding (or 24 hr. post-transfection), any GH or GHA or CIDEC or peptides were added at specific concentrations. […]
# (§3) A resazurin based absorption assay was performed measuring cell proliferation, as a measure of inhibition of cell growth/viability. There are several commonly practiced assays using tetrazolium (MTT, MTS, XTT), or resazurin which give a quantitative reflection of cell viability. Although ATP detection assay is the most sensitive of the available options, resazurin-based assay is considered adequate and is routinely used to measure compound EC50s or cell viability following cytotoxic treatments. A stock solution of 1% (w/v) resazurin (Sigma-Aldrich #R7017) in 1×PBS was made and filter-sterilized. The final concentration of resazurin in the assay was 0.004%. Proliferating cells can be quantified by spectrophotometric measurement of a bright pink fluorescent product called resorufin (stable for >4 hr) formed when mildly fluorescent blue resazurin enters a reducing intracellular environment characteristic of proliferating cells. Cells were seeded at 10,000 cells/cm^2 into 96-well plates and transfected as described above. The resazurin assay was performed following the respective treatment periods and resorufin absorbance was measured at 570 nm (reference wavelength=600 nm) using Spectramax250 (Molecular Devices, Sunnyvale, CA) and SoftmaxPro software. In all cases, cells were incubated at 37C/5% CO2 for 1 hr following resazurin addition. The resazurin assay for cell proliferation was used to measure EC-50 of relevant drugs and Graph Pad Prism was used to calculate EC-50 shifts (EC50 shift=EC50 of treated cell line/EC50 of parental cell line.
# A 1% (w/v) resazurin (Sigma-Aldrich) solution in 1×PBS was made and filter-sterilized. The final concentration of resazurin in the assay was 0.004%. Inside the proliferating cells mildly fluorescent blue resazurin is reduced to a bright pink fluorescent product called resorufin (stable for 4 hr), which is a quantitative measure of the percentage of proliferating cells. In all cases, cells were incubated at 37C/5% CO2 for 45-60 minutes for adequate sensitivity of detection. Briefly, cells were seeded at 10,000 cells/cm^2 into 96-well plates and transfected as described above. The resazurin assay was performed 60 hr after transfection (unless specified otherwise) and resorufin absorbance was measured at 570 nm (reference wavelength=600 nm) using Spectramax250 (Molecular Devices) and SoftmaxPro v4.7.1 software. […]
# [2] = tested on: 786-O human renal cancer (clear cell renal cell carcinoma) cells; details: for efficacy in inhibiting cell viability: human kidney cancer, 50 nM; for efficacy in inhibiting cell viability / inhibition of cell viability: 48 hr; for inhibition of cell viability: human, 100 nM
# Source text: FIG. 11: Effect of CIDEC and fragment peptides on human renal cancer cell (786-0) viability. [full-length CIDEC, #1, #2, #4, #5, #6=shorter fragment peptides of full-length CIDEC]; Cell: human renal cancer cells; Assay: Cell viability assay (Presto-Blue, Invitrogen); Doses (nM): 0, 50, 100; Treatment period (hr): 48.
# as §1, §2, §3
# A 1% (w/v) resazurin (Sigma-Aldrich) solution in 1×PBS was made and filter-sterilized. The final concentration of resazurin in the assay was 0.004%. Inside the proliferating cells mildly fluorescent blue resazurin is reduced to a bright pink fluorescent product called resorufin (stable for 4 hr), which is a quantitative measure of the percentage of proliferating cells. In all cases, cells were incubated at 37C/5% CO2 for 45-60 minutes for adequate sensitivity of detection. Briefly, cells were seeded at 10,000 cells/cm^2 into 96-well plates and transfected as described above. […]
# [3] = tested on: SK-MEL-28 human melanoma cells; details: 48 hr; for efficacy in inhibiting cell viability: human melanoma, 50 nM; for inhibition of cell viability: human, 100 nM
# Source text: FIG. 10: Effect of CIDEC and fragment peptides on human melanoma cell (SK-MEL-28) viability. [full-length CIDEC, #1, #2, #4, #5, #6=shorter fragment peptides of full-length CIDEC]; Cell: human melanoma cells SK-MEL-28; Assay: Cell viability assay (Presto-Blue, Invitrogen); Doses (nM): 0, 50, 100; Treatment period (hr): 48.
# as §1
# Recombinant hGH was purchased from Antibodies Online (Atlanta, GA), GH antagonist (GHA; Somavert) was obtained from Pfizer (New York City, NY), full length CIDEC was purchased from Abcam (Cambridge, UK) and CIDEC fragment peptides were synthesized at Genscript (Piscataway, NJ). No hGH or GHA was present in the media or added externally unless specifically mentioned. […]
# (§4) A resazurin based absorption assay was performed measuring cell proliferation, as a measure of inhibition of cell growth/viability. There are several commonly practiced assays using tetrazolium (MTT, MTS, XTT), or resazurin which give a quantitative reflection of cell viability. […] Proliferating cells can be quantified by spectrophotometric measurement of a bright pink fluorescent product called resorufin (stable for >4 hr) formed when mildly fluorescent blue resazurin enters a reducing intracellular environment characteristic of proliferating cells. […] The resazurin assay was performed following the respective treatment periods and resorufin absorbance was measured at 570 nm (reference wavelength=600 nm) using Spectramax250 (Molecular Devices, Sunnyvale, CA) and SoftmaxPro software. […]
# A 1% (w/v) resazurin (Sigma-Aldrich) solution in 1×PBS was made and filter-sterilized. […] Inside the proliferating cells mildly fluorescent blue resazurin is reduced to a bright pink fluorescent product called resorufin (stable for 4 hr), which is a quantitative measure of the percentage of proliferating cells. […]
# cells = experiment: Anti-cancer effect of FSP27 segment in cells
# [4] = tested on: human normal fibroblast cells; experiment: Cell viability assay (Presto-Blue / resazurin), normal fibroblasts; details: exposure to up to 100 nM CIDEC, 24 hr
# Description: FIG. 6: Effect of CIDEC on human normal fibroblast cells; Cell: human normal fibroblast cells; Assay: Cell viability assay (Presto-Blue, Invitrogen); Doses (nM): 0, 50, 100 nM; Treatment period (hr): 24.
# Human cancer cell lines (part of NCI-60 panel of human cancer cells)—SK-MEL-5 (melanoma), SK-MEL-28 (melanoma), MCF-7 (breast cancer), 786-0 (renal cancer), A498 (renal cancer), Hep-G2 (liver cancer), SK-HEP-1 (liver cancer), PANC-1 (pancreatic cancer), and normal human skin fibroblast cells MALME-3 cells were obtained from American Type Culture Collection (ATCC; Manassas, VA). […]
# as §4
# [5] = tested on: PANC-1 human pancreatic ductal adenocarcinoma cells; experiment: Cell viability assay (Presto-Blue / resazurin), PANC-1
# Description: as §1, with “MALME-3 cells were grown in McCoy's medium (ATCC) supplemented with 15% FBS and 1× antibiotic-antimycotic. Cells were grown at 37C/5% CO2 in a humidified incubator. Media was replaced every third day.” left out
# (§5) A resazurin based absorption assay was performed measuring cell proliferation, as a measure of inhibition of cell growth/viability. There are several commonly practiced assays using tetrazolium (MTT, MTS, XTT), or resazurin which give a quantitative reflection of cell viability. […] Proliferating cells can be quantified by spectrophotometric measurement of a bright pink fluorescent product called resorufin (stable for >4 hr) formed when mildly fluorescent blue resazurin enters a reducing intracellular environment characteristic of proliferating cells. […]
# [6] = tested on: MCF-7 human breast cancer cells; experiment: Cell viability assay (Presto-Blue / resazurin), MCF-7
# Description: as §1, with “MALME-3 cells were grown in McCoy's medium (ATCC) supplemented with 15% FBS and 1× antibiotic-antimycotic. Cells were grown at 37C/5% CO2 in a humidified incubator. Media was replaced every third day.” left out
# as §5
# [7] = tested on: SK-MEL-28 human melanoma cells
molecule,measurement,setting,value
"COc1cccc2c1C(=O)c1c(O)c3c(c(O)c1C2=O)C[C@@](O)(C(=O)CO)C[C@@H]3O[C@H]1C[C@H](N)[C@H](O)[C@H](C)O1 [doxorubicin, reference compound]",EC50,"[1]; Homo sapiens, HepG2, read-out: doxorubicin EC50 for HepG2",190 nM
same,cells killed,"[1]; doxorubicin 300 nM, in absence of CIDEC",> 90%
CC[C@H](C)[C@H](NC(=O)[C@H](CCCCN)NC(=O)[C@H](CCCCN)NC(=O)[C@H](C)NC(=O)[C@@H]1CCCN1C(=O)[C@H](CCCCN)NC(=O)[C@H](Cc1c[nH]cn1)NC(=O)[C@H](CO)NC(=O)[C@H](CC(C)C)NC(=O)[C@H](CO)NC(=O)[C@H](CC(C)C)NC(=O)[C@@H]1CCCN1C(=O)[C@H](Cc1c[nH]cn1)NC(=O)[C@H](CCCNC(=N)N)NC(=O)[C@@H](NC(=O)CNC(=O)[C@H](CCC(N)=O)NC(=O)[C@H](CCC(=O)O)NC(=O)[C@@H](N)CO)[C@@H](C)O)C(=O)N[C@@H](CC(=O)O)C(=O)N[C@H](C(=O)O)C(C)C [Cf4] (H-SEQGTRHPLSLSHKPAKKIDV-OH; N-terminus and C-terminus assumed),efficacy in inhibiting cell viability,[2],highly efficacious
same,inhibition of cell viability,[2],100%
same,efficacy in inhibiting cell viability,[1]; 48 hr,highly efficacious
same,inhibition of cell viability,[1]; 48 hr,100%
same,efficacy in inhibiting cell viability,[3],highly efficacious
same,inhibition of cell viability,[3],100%
YDLHCCGAKRIMKEAFRWALFSMQATGHVLLGTSCYLQQLLDATEEGQ (cysteines drawn unpaired) [Cf2],efficacy in inhibiting cell viability,[2],highly efficacious
same,inhibition of cell viability,[2],100%
same,efficacy in inhibiting cell viability,[1]; 48 hr,highly efficacious
same,inhibition of cell viability,[1]; 48 hr,100%
same,efficacy in inhibiting cell viability,[3],highly efficacious
same,inhibition of cell viability,[3],100%
"segment 120-140: segment of FSP27, amino acids 120-140; FIG. 13 discloses SEQ ID NO: 4, so possibly Cf4 (SEQGTRHPLSLSHKPAKKIDV)",efficacy towards anti-cancer effect in cells,cells,maximum efficacy
B1,decrease in cell viability of normal cells,[4],no significant decrease in cell viability
same,EC50,"[2]; 786-0, up to 400 nM CIDEC, read-out: EC50 (cell viability)",> 400 nM
same,IC50,"[2]; 786-O, 24 hr, doses 0-400 nM, read-out: IC50, sigmoid inhibition curve of cell viability",> 400 nM
same,EC50,"[5]; PANC1, 0-400 nM CIDEC",132 nM
same,IC50,"[5]; PANC-1, 24 hr, doses 0-400 nM, read-out: IC50, sigmoid inhibition curve of cell viability",132 nM
same,effect on efficacy of sorafenib-tosylate against liver cancer,"[1]; 50 nM CIDEC plus anti-cancer drug, 48 hr",significant increase in efficacy
same,EC50,"[1]; HepG2, 0-400 nM CIDEC, read-out: EC50 (dose that causes 50% decrease of cell viability)",65 nM
same,IC50,"[1]; HepG2, 24 hr, doses 0-400 nM, read-out: IC50, sigmoid inhibition curve of cell viability",65 nM
same,decrease in cell viability of liver cancer cells treated with sorafenib-tosylate,"[1]; co-administration of fl-CIDEC with sorafenib-tosylate (1000 nM), 24 hr",2 fold
same,EC50,"[6]; MCF-7, 0-400 nM CIDEC",187 nM
same,IC50,"[6]; MCF-7, 24 hr, doses 0-400 nM, read-out: IC50, sigmoid inhibition curve of cell viability",187 nM
same,improvement of drug effects in human melanoma,"[7]; 50 nM CIDEC plus anti-cancer drugs, 48 hr",did not improve drug effects
same,IC50,"[7]; SK-MEL-28, 24 hr, doses 0-400 nM, read-out: IC50, sigmoid inhibition curve of cell viability",> 400 nM
same,EC50,"[7]; SK-MEL-28, up to 400 nM CIDEC, read-out: EC50 (cell viability)",> 400 nM
same,improvement of cell inhibition rate above that of doxorubicin or vemurafenib,"[7]; co-administration, 24 hr, doxorubicin 300 nM, vemurafenib 50 nM",did not improve the cell inhibition rate
